Data on 68 molecules can be found in patent US20130310379A1, “MODULATORS OF METHYL MODIFYING ENZYMES, COMPOSITIONS AND USES THEREOF” (CONSTELLATION PHARMACEUTICALS, priority 2010, published 2013).

Chain of EZH2 (Q15910 whole entry): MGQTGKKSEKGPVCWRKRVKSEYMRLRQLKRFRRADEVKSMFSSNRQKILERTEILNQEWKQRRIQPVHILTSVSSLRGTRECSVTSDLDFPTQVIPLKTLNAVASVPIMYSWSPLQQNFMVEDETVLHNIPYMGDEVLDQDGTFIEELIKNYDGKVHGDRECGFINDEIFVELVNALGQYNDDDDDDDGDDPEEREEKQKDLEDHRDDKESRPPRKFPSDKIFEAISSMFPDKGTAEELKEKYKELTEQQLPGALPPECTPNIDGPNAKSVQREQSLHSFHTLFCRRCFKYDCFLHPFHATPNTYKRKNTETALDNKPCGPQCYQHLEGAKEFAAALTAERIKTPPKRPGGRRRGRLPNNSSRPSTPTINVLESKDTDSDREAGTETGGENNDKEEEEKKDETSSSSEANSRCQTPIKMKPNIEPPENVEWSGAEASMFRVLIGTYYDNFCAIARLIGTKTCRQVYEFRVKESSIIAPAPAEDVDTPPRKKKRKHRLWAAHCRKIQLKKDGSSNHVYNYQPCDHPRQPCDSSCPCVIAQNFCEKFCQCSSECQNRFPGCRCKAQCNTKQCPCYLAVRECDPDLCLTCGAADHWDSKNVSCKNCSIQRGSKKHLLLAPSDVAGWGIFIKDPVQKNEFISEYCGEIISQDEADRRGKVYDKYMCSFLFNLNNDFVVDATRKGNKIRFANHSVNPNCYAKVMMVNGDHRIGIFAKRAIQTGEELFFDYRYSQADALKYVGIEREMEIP
Chain of EZH2 (O75530 whole entry partner): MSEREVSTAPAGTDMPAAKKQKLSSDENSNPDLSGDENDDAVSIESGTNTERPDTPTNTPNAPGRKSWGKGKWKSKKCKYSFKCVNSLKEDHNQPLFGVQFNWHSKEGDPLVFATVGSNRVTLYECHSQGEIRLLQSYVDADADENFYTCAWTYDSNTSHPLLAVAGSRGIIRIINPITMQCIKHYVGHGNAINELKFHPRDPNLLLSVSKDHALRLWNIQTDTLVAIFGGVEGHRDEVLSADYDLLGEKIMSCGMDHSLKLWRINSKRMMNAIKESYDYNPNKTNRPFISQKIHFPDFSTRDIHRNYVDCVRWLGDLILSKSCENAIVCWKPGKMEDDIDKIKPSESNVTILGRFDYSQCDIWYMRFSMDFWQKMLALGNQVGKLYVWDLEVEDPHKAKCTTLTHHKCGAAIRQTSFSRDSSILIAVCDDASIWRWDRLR
Chain of EZH2 (Q15022 whole entry partner): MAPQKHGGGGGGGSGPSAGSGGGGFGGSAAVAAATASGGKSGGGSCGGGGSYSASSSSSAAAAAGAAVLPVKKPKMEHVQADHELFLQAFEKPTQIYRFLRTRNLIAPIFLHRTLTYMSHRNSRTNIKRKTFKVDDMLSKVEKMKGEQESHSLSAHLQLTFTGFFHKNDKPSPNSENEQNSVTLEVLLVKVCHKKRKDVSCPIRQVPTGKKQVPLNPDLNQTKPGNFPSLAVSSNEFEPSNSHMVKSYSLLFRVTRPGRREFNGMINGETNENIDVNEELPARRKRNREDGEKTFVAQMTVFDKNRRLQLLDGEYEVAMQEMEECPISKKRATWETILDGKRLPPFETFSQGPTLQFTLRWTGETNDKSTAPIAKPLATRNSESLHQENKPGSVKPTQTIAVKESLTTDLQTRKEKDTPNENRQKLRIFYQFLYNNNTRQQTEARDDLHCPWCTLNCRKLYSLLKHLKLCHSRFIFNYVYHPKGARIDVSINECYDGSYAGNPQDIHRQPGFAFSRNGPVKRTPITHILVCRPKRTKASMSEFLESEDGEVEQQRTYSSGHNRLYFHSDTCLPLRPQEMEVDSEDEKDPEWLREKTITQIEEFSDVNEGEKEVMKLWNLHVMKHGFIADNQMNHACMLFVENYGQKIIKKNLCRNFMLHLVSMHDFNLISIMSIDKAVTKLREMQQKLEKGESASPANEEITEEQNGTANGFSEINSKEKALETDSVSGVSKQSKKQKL

The target of the assay is EZH2 (Homo sapiens, UniProt Q15910). The assay is described as follows: EZH2 assay: rPRC2 with biotinylated oligonucleosome substrates and 3H SAM, FlashPlate scintillation counting, IC50. The assay is classed as biochemical. Particulars: rPRC2, biotinylated oligonucleosome substrates, 3H SAM; read-out: EZH2 IC50. A digest of the protocol:
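rPRC2 (2 nM EZH2) pre-incubated 20 min with compound (80 to 0.16 uM, ten 2-fold steps), then 60 min reaction with 0.2 uM 3H SAM, 0.2 uM biotinylated oligonucleosomes, 3.6 uM H3K27me3 peptide in Tris pH 8.5. SAH/EDTA quench; 4-parameter IC50 fit.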
As for `CC1(C)CC(NC(=O)c2ccc(Oc3ccccc3C(=O)NCc3ccccc3)c(Cl)c2)CC(C)(C)N1` [Compound I-286], the IC50 lay within 5 to 20 µM.

In the case of `CC(O)c1ccccc1Oc1ccc(C(=O)NC2CC(C)(C)NC(C)(C)C2)cc1` (centres unmarked) [Compound I-287], the IC50 was in the range of 20 to 80 µM. In the case of `COc1cncc(-c2ccccc2Oc2ccc(C(=O)NC3CC(C)(C)NC(C)(C)C3)cc2Cl)c1` [Compound I-288] it was less than 5 µM; in that of `CN1C(C)(C)CC(NC(=O)c2ccc(Oc3ccccc3C#N)c(Cl)c2)CC1(C)C` [Compound I-289], less than 5 µM; in that of `CC(=O)N1C(C)(C)CC(NC(=O)c2ccc(Oc3ccccc3C#N)c(Cl)c2)CC1(C)C` [Compound I-290], greater than 80 µM. Take `CC1(C)CC(NC(=O)c2ccc(Oc3cccc4cnccc34)c(Br)c2)CC(C)(C)N1` [Compound I-291]: the IC50 was less than 5 µM. In the case of `CC1(C)CC(NC(=O)c2ccc(CCOc3ccccc3)cc2)CC(C)(C)N1` [Compound I-292] it was greater than 80 µM.

Take `Cc1ncccc1-c1ccccc1Oc1ccc(C(=O)NC2CC(C)(C)NC(C)(C)C2)cc1Cl` [Compound I-293]: the IC50 was in the range of 5 to 20 µM. In the case of `COC(=O)c1ccc(-c2ccccc2Oc2ccc(C(=O)NC3CC(C)(C)NC(C)(C)C3)cc2Cl)cn1` [Compound I-294] it was less than 5 µM; in that of `Cc1ccc(-c2ccccc2Oc2ccc(C(=O)NC3CC(C)(C)NC(C)(C)C3)cc2Cl)cn1` [Compound I-295], less than 5 µM. To `Cc1cncc(-c2ccccc2Oc2ccc(C(=O)NC3CC(C)(C)NC(C)(C)C3)cc2Cl)c1` [Compound I-296] belongs less than 5 µM; to `Cc1ccncc1-c1ccccc1Oc1ccc(C(=O)NC2CC(C)(C)NC(C)(C)C2)cc1Cl` [Compound I-297], 5 to 20 µM; to `CC1CCCCC1Oc1ccc(C(=O)NC2CC(C)(C)NC(C)(C)C2)cc1` (centres unmarked) [Compound I-298], greater than 80 µM.

In the case of `CC1(C)CC(NC(=O)c2ccc(OC3CCCC3)cc2)CC(C)(C)N1` [Compound I-299], the IC50 is greater than 80 µM. Turning to `CC1(C)CC(NC(=O)c2ccc(Sc3ccccc3)c(Cl)c2)CC(C)(C)N1` [Compound I-300], the IC50 lay in the range of 20 to 80 µM. In the case of `Cc1ccccc1Sc1ccc(C(=O)NC2CC(C)(C)NC(C)(C)C2)cc1Cl` [Compound I-302], the IC50 was 20 to 80 µM. As to `CC1(C)CC(NC(=O)c2ccc(-n3cnc4ccccc43)c(Cl)c2)CC(C)(C)N1` [Compound I-303], the IC50 is greater than 80 µM. On to `CC1(C)CC(NC(=O)c2ccc(Oc3ccccc3CC#N)cc2)CC(C)(C)N1` [Compound I-305], for which the 50% inhibitory concentration (IC50) was 20 to 80 µM. Turning to `CC1(C)CC(NCc2ccc(Oc3ccccc3C#N)cc2)CC(C)(C)N1` [Compound I-306], the IC50 was greater than 80 µM.

Consider `Cc1cccc(Oc2ccc(C(=O)NC3CC(C)(C)NC(C)(C)C3)cc2Cl)c1C#N` [Compound I-309], for which the IC50 is less than 5 µM. In the case of `CCc1cccc(Oc2ccc(C(=O)NC3CC(C)(C)NC(C)(C)C3)cc2Cl)c1C#N` [Compound I-310] it was less than 5 µM; in that of `CC1(C)CC(NC(=O)c2ccc(Oc3cccc(C(F)(F)F)c3C#N)c(Cl)c2)CC(C)(C)N1` [Compound I-311], less than 5 µM; in that of `CC1(C)CC(NC(=O)c2ccc(Oc3ccccc3-c3nn[nH]n3)c(Cl)c2)CC(C)(C)N1` [Compound I-313], greater than 80 µM.

For the molecule `CC1(C)CC(NC(=O)c2ccc(Oc3cccc4c(Cl)nccc34)cc2)CC(C)(C)N1` [Compound I-314], the IC50 fell in the range of 5 to 20 µM. Turning to `CC1(C)CC(NC(=O)c2ccc(Oc3cccc4cnc(Cl)cc34)cc2)CC(C)(C)N1` [Compound I-315], the IC50 is less than 5 µM. `CC1(C)CC(NC(=O)c2ccc(Oc3cccc4c(N)nccc34)cc2)CC(C)(C)N1` [Compound I-316]: the IC50 was 20 to 80 µM. For the molecule `CC1(C)CC(NC(=O)c2ccc(Oc3cccc4c(=O)[nH]ccc34)cc2)CC(C)(C)N1` [Compound I-317], the IC50 was greater than 80 µM. To `CC1(C)CC(NC(=O)c2ccc(Oc3ccncc3)c(Br)c2)CC(C)(C)N1` [Compound I-318] belongs 20 to 80 µM. To `CC1(C)CC(NC(=O)c2ccc(Oc3ccncc3)cc2)CC(C)(C)N1` [Compound I-319] belongs greater than 80 µM. In the case of `COc1ncccc1-c1ccccc1Oc1ccc(C(=O)NC2CC(C)(C)NC(C)(C)C2)cc1Cl` [Compound I-321] it was greater than 80 µM. As to `COC(=O)c1cncc(-c2ccccc2Oc2ccc(C(=O)NC3CC(C)(C)NC(C)(C)C3)cc2Cl)c1` [Compound I-322], the IC50 was less than 5 µM. On to `Cc1ccc(-c2cccc(Oc3ccc(C(=O)NC4CC(C)(C)NC(C)(C)C4)cc3Cl)c2C#N)s1` [Compound I-323], for which the IC50 is less than 5 µM. With `Cc1ccccc1Oc1ccc(C(=O)NC2CC(C)(C)NC(C)(C)C2)cc1Cl` [Compound I-325], the IC50 was 5 to 20 µM. As for `CC1(C)CC(NC(=O)c2ccc(-n3ccc4ccccc43)c(Cl)c2)CC(C)(C)N1` [Compound I-328], the IC50 lay in the range of 20 to 80 µM. `N#Cc1c(Oc2ccc(C(=O)NC3CCNCC3C#N)cc2Cl)cccc1-c1ccnnc1` (centres unmarked) [Compound I-329]: the 50% inhibitory concentration (IC50) is greater than 80 µM. In the case of `CC1(C)CC(NC(=O)c2ccc(Oc3cccc4cccnc34)cc2)CC(C)(C)N1` [Compound I-331] it was 20 to 80 µM; in that of `Cc1cc(C(=O)NC2CC(C)(C)NC(C)(C)C2)ccc1Oc1ccccc1C(C)C` [Compound I-332], 5 to 20 µM. On to `Cc1cc(C(=O)NC2CC(C)(C)NC(C)(C)C2)cc(C)c1Oc1ccccc1C#N` [Compound I-335], for which the IC50 is 20 to 80 µM.

For `Cn1cc(-c2cccc(Oc3ccc(C(=O)NC4CC(C)(C)NC(C)(C)C4)cc3Cl)c2C#N)cn1` [Compound I-336], the IC50 is less than 5 µM. To `CC1(C)CC(NC(=O)c2ccc(Oc3cccc(-c4ccc[nH]4)c3C#N)c(Cl)c2)CC(C)(C)N1` [Compound I-337] belongs less than 5 µM; to `CC1(C)CC(NC(=O)c2ccc(Oc3cccc(-c4ccn[nH]4)c3C#N)c(Cl)c2)CC(C)(C)N1` [Compound I-338], less than 5 µM. Regarding `CCN(C(=O)c1ccc(Oc2ccccc2C#N)c(Cl)c1)C1CC(C)(C)NC(C)(C)C1` [Compound I-341], the half-maximal inhibitory concentration (IC50) was greater than 80 µM. As to `Cc1cc(C(=O)NC2CC(C)(C)NC(C)(C)C2)ccc1Oc1cccc(CC#N)c1` [Compound I-345], the IC50 was less than 5 µM.

As for `CC1(C)CC(NC(=O)c2ccc(Oc3cccc4cccnc34)c(Cl)c2)CC(C)(C)N1` [Compound I-346], the IC50 lay within 5 to 20 µM. In the case of `CNc1cccc(Oc2ccc(C(=O)NC3CC(C)(C)NC(C)(C)C3)cc2Cl)c1C#N` [Compound I-348] it was less than 5 µM; in that of `CC1(C)CC(NC(=O)c2ccc(Oc3ccncc3C#N)c(Cl)c2)CC(C)(C)N1` [Compound I-349], 5 to 20 µM; in that of `CC1(C)CC(NC(=O)c2ccc(Oc3cccc4cnc(N)cc34)cc2)CC(C)(C)N1` [Compound I-350], 5 to 20 µM. As for `CC1(C)CC(NC(=O)c2cc(F)c(Oc3ccccc3C#N)c(Br)c2)CC(C)(C)N1` [Compound I-351], the IC50 is less than 5 µM. In the case of `Cc1ncccc1-c1cccc(Oc2ccc(C(=O)NC3CC(C)(C)NC(C)(C)C3)cc2Cl)c1C#N` [Compound I-352], the IC50 was less than 5 µM. Turning to `CC1(C)CC(NC(=O)c2ccc(Oc3ccccc3C(=O)O)c(Cl)c2)CC(C)(C)N1` [Compound I-353], the IC50 was greater than 80 µM. To `CC1(C)CC(NC(=O)c2ccc(Oc3cccc(C(=O)O)c3)c(Cl)c2)CC(C)(C)N1` [Compound I-354] belongs greater than 80 µM; to `CC1(C)CC(NC(=O)c2ccc([S+]([O-])c3ccccc3)cc2)CC(C)(C)N1` (centres unmarked) [Compound I-355], greater than 80 µM. Consider `CC1(C)CC(NC(=O)c2ccc(S(=O)(=O)c3ccccc3)cc2)CC(C)(C)N1` [Compound I-357], for which the half-inhibitory concentration (IC50) was greater than 80 µM.

Consider `CC1(C)CC(NC(=O)c2ccc(Oc3ccc(F)cc3C#N)c(Cl)c2)CC(C)(C)N1` [Compound I-359], for which the IC50 fell in the range of 5 to 20 µM. To `Cc1cncc(-c2cccc(Oc3ccc(C(=O)NC4CC(C)(C)NC(C)(C)C4)cc3Cl)c2C#N)c1` [Compound I-360] belongs less than 5 µM; to `CC1(C)CC(NC(=O)c2ccc(Oc3cccc(-c4cccnc4N)c3C#N)c(Cl)c2)CC(C)(C)N1` [Compound I-361], 5 to 20 µM; to `Cn1cc(-c2ccccc2Oc2ccc(C(=O)NC3CC(C)(C)NC(C)(C)C3)cc2Cl)nn1` [Compound I-363], less than 5 µM. In the case of `Cc1ccncc1-c1cccc(Oc2ccc(C(=O)NC3CC(C)(C)NC(C)(C)C3)cc2Cl)c1C#N` [Compound I-365] it was less than 5 µM.

With `COc1ccc(-c2cccc(Oc3ccc(C(=O)NC4CC(C)(C)NC(C)(C)C4)cc3Cl)c2C#N)cn1` [Compound I-366], the IC50 was less than 5 µM. Take `N#Cc1ccccc1Oc1ccc(C(=O)NC2CCN(c3cccnc3)CC2)cc1Cl` [Compound I-368]: the IC50 is greater than 80 µM.

Take `CC1(C)CC(NC(=O)c2ccc(Oc3cccc4c[nH]c(=O)cc34)cc2)CC(C)(C)N1` [Compound I-370]: the IC50 was 20 to 80 µM. Take `CC1(C)CC(NC(=O)c2ccc(Oc3cccc(-c4cncs4)c3C#N)c(Cl)c2)CC(C)(C)N1` [Compound I-371]: the IC50 is less than 5 µM. In the case of `CC1(C)CC(NC(=O)c2ccc(Oc3cccc4nccn34)c(Cl)c2)CC(C)(C)N1` [Compound I-372] it was 5 to 20 µM.

For `N#Cc1c(Oc2ccc(C(=O)NC3CCNCC3)cc2Cl)cccc1-c1cn[nH]c1` [Compound I-373], the IC50 was greater than 80 µM. To `CC1(C)CC(NC(=O)c2ccc(Oc3cccc(-c4cnn(CC(=O)O)c4)c3C#N)c(Cl)c2)CC(C)(C)N1` [Compound I-374] belongs less than 5 µM. In the case of `CC1(C)CC(NC(=O)c2ccc(-c3ccc4cnccc4c3)c(Cl)c2)CC(C)(C)N1` [Compound I-376], the IC50 was 20 to 80 µM.

For the molecule `CC1(C)CC(NC(=O)c2ccc(-c3ccc4ccncc4c3)c(Cl)c2)CC(C)(C)N1` [Compound I-377], the IC50 fell in the range of 5 to 20 µM. To `N#Cc1ccccc1Oc1ccc(C(=O)N[C@@H]2C[C@H]3CC[C@@H](C2)N3)cc1Cl` [Compound I-380] belongs 20 to 80 µM.
